Test results taken from PMC10396970, “Metal-dependent enzyme symmetry guides the biosynthetic flux of terpene precursors” (Nature Chemistry, 2023).

Experiments:
PcIDS1 [1] = molecular target: T1, PcIDS1 (Phaedon cochleariae, UniProt M1JS91); test: crystal structure; format: binding
T1 construct: N-terminal signal peptide (residues 1-85) removed; N-terminal His6-SUMO tag cut with Ulp1; E. coli BL21(DE3); homodimer; C-terminal residue A429
T1 sequence (M1JS91 86-429): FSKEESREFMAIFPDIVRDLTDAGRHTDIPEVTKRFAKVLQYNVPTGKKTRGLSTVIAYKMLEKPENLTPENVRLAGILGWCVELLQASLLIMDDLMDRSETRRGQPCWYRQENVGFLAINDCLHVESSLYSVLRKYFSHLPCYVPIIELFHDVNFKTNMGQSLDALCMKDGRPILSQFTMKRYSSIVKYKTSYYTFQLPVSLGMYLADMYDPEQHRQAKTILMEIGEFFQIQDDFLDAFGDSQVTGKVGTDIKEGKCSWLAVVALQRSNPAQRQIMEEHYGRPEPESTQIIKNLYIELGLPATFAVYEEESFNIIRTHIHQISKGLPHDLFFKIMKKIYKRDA

PcIDS1 [2] = molecular target: T1, PcIDS1; test: thermal shift assay (Sypro Orange); format: binding; conditions: 5 mM MgCl2, pH 7.0

## CC(C)=CCC/C(Br)=C/COP(=O)(O)OP(=O)(O)O [3-Br-GPP]
PcIDS1 [1]; Mg2+, IPP added but not bound, allylic site
  crystal structure: 3-Br-GPP mimics GPPAl coordination

## CC(C)=CCC/C(C)=C/CC/C(C)=C/COP(=O)(O)OP(=O)(O)O [FPP, farnesyl pyrophosphate]
PcIDS1 [2]
  dTm: 7 °C

## CC(C)=CCC/C(C)=C/COP(=O)(O)OP(=O)(O)O [GPP, geranyl pyrophosphate]
PcIDS1 [1]; Mn2+, second site, allosteric
  crystal structure: contains well-defined electron density for a second GPP molecule (GPPAllo; Fig. 3h)
PcIDS1 [2]; allylic site in the structure
  dTm: 17 °C

## C=C(C)CCOP(=O)(O)OP(=O)(O)O [IPP, isopentenyl pyrophosphate]
PcIDS1 [2]; allylic and homoallylic sites
  dTm: 7 °C

## O=P(O)(O)C(O)(Cn1ccnc1)P(=O)(O)O [ZOL, zoledronic acid]
PcIDS1 [2]; 200 µM ligand, allylic site
  dTm: 28 °C
